Results reported in PubChem BioAssay AID1963986 (Molecular Pharmacology Branch, DTP, NCI, 2024).
pIC50: −log10 of the molar value.

System: 171881-019-R-J1-PDC tumor spheroid viability
Test: Anticancer human tumor 171881-019-R-J1-PDC patient-derived invasive breast carcinoma cell line growth inhibition [PI3K]
Details: spheroids with HUVEC and MSC; for pIC50: curve of first compound; for viability, T/C: stronger effect = lower value
Summary of the method: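 Spheroid viability read-out. Co-cultures contained the tumor line plus HUVEC and human MSCs. Each agent was paired with a PI3K inhibitor (inavolisib, alpelisib, duvelisib, copanlisib) across half-log dilutions starting at clinical Cmax, or at 10 microM when Cmax was unknown.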
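Note: spheroids exposed to compound for 7 days before viability read.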
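Throughout, for viability, T/C: 100% = DMSO vehicle-treated spheroids.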

With `CC(C)n1nc(-c2ccc3oc(N)nc3c2)c2c(N)ncnc21` + CC(Nc1ccc2c(c1)OCCn1cc(N3C(=O)OCC3C(F)F)nc1-2)C(N)=O the pIC50 (second compound 0.00316 µM) was 8.04, the pIC50 (second compound 0.01 µM) was 8.40 and the pIC50 (second compound 0.0316 µM) was 8.87. For the same compound, the pIC50 (second compound 0.1 µM) was greater than 9.50, the pIC50 (second compound 0.316 µM) was greater than 9.50 and the pIC50 (second compound 1 µM) was greater than 9.50. The viability, T/C (second compound 0.00316 µM, first compound 0.000316 µM) was 80.2%, the viability, T/C (second compound 0.00316 µM, first compound 0.001 µM) was 76.2% and the viability, T/C (second compound 0.00316 µM, first compound 0.00316 µM) was 69.5%. The viability, T/C (second compound 0.00316 µM, first compound 0.01 µM) was 49.4%, the viability, T/C (second compound 0.00316 µM, first compound 0.0316 µM) was 17.4% and the viability, T/C (second compound 0.00316 µM, first compound 0.1 µM) was 4.49%. For the same compound, the viability, T/C (second compound 0.01 µM, first compound 0.000316 µM) was 71.7%, the viability, T/C (second compound 0.01 µM, first compound 0.001 µM) was 69.9% and the viability, T/C (second compound 0.01 µM, first compound 0.00316 µM) was 49.7%. The viability, T/C (second compound 0.01 µM, first compound 0.01 µM) was 38.5%, the viability, T/C (second compound 0.01 µM, first compound 0.0316 µM) was 12.6% and the viability, T/C (second compound 0.01 µM, first compound 0.1 µM) was 4.27%. For the same compound, the viability, T/C (second compound 0.0316 µM, first compound 0.000316 µM) was 58.5%, the viability, T/C (second compound 0.0316 µM, first compound 0.001 µM) was 50.9% and the viability, T/C (second compound 0.0316 µM, first compound 0.00316 µM) was 42.9%. For the same compound, the viability, T/C (second compound 0.0316 µM, first compound 0.01 µM) was 25.3%, the viability, T/C (second compound 0.0316 µM, first compound 0.0316 µM) was 8.97% and the viability, T/C (second compound 0.0316 µM, first compound 0.1 µM) was 3.7%. For the same compound, the viability, T/C (second compound 0.1 µM, first compound 0.000316 µM) was 43.2%, the viability, T/C (second compound 0.1 µM, first compound 0.001 µM) was 38.6% and the viability, T/C (second compound 0.1 µM, first compound 0.00316 µM) was 28.8%. The viability, T/C (second compound 0.1 µM, first compound 0.01 µM) was 13.3%, the viability, T/C (second compound 0.1 µM, first compound 0.0316 µM) was 6.55% and the viability, T/C (second compound 0.1 µM, first compound 0.1 µM) was 3.2%. It also gave a viability, T/C (second compound 0.316 µM, first compound 0.000316 µM) of 26.6%, a viability, T/C (second compound 0.316 µM, first compound 0.001 µM) of 25.2% and a viability, T/C (second compound 0.316 µM, first compound 0.00316 µM) of 17.7%. It also gave a viability, T/C (second compound 0.316 µM, first compound 0.01 µM) of 8.83%, a viability, T/C (second compound 0.316 µM, first compound 0.0316 µM) of 4.95% and a viability, T/C (second compound 0.316 µM, first compound 0.1 µM) of 2.96%. It also gave a viability, T/C (second compound 1 µM, first compound 0.000316 µM) of 18.8%, a viability, T/C (second compound 1 µM, first compound 0.001 µM) of 19.5% and a viability, T/C (second compound 1 µM, first compound 0.00316 µM) of 12.8%. It also gave a viability, T/C (second compound 1 µM, first compound 0.01 µM) of 6.3%, a viability, T/C (second compound 1 µM, first compound 0.0316 µM) of 4.24% and a viability, T/C (second compound 1 µM, first compound 0.1 µM) of 2.61%.
